Assay results taken from PubChem BioAssay AID1996.
Converted amounts (≈) assume the structure as drawn.

Details: buffer; pH 7.4; 200.0 µM

| Structure (SMILES) | solubility kinetic [µg/mL] |
| --- | --- |
| CCN(C(=O)COC(=O)c1cc2c(s1)CCCC2)c1c(N)n(Cc2ccccc2)c(=O)[nH]c1=O | 3.3 (≈ 6.84 µM) |
| O=Cc1c(NCCN2CCCC2)c2ccccc2[nH]c1=O | > 42.8 |
| O=C(CNC(=O)c1ccccc1Cl)NCCc1cccs1 | > 48.4 |
| O=C(NCc1ccncc1)C1=NN(c2ccccc2)C(=O)CC1 | > 46.3 |
| CC1CCN(C(=O)c2ccccc2NC(=O)Cc2ccccc2)CC1 | > 50.5 |
| O=C(Nc1ccc2ccccc2c1)C(=O)C1C(=O)Nc2ccccc21 (stereo unspecified) | 3.7 (≈ 11.2 µM) |
| CN1CCN(C=Nc2nc3ccccc3nc2N2CCCC2)CC1 | > 48.7 |
| O=C(NCCc1ccccc1)C1CCC(=O)N1C1CCCC1 (stereo unspecified) | > 45.1 |
| CC1(C)CC(=O)c2c(Cc3ccccc3)noc2C1 | 33.4 (≈ 131 µM) |
| Cc1ccc([N+](=O)[O-])cc1N(CC(=O)NC1CCCC1)S(C)(=O)=O | > 53.3 |
| O=C(CNC(=O)c1ccco1)NCC(=O)OCc1ccccc1Cl | 42.5 (≈ 121 µM) |
| COCCNC(=O)/C(C#N)=C/C=C/c1ccccc1 | 28.9 (≈ 113 µM) |
| O=C(COC(=O)c1ccc(F)cc1F)Nc1ncccn1 | > 44 |
| C[C@H](NC(=O)[C@@H]1Cc2ccccc2CN1)C(=O)NC1CCCC1 | > 47.3 |
| COc1cccc2c(Cl)c(CCCl)c(C)nc12 | 1.1 (≈ 4.07 µM) |
| CCOC(=O)C1(CC2CC2)CCN(Cc2cnc(N(C)C)s2)CC1 | 46.1 (≈ 131 µM) |
| CCCS(=O)(=O)N1CCCC(C(=O)c2ccccc2OC)C1 (stereo unspecified) | > 48.8 |
| CC1(C)CC(=O)C(CC(=O)NC2CCCc3ccccc32)C(=O)C1 (stereo unspecified) | > 49.1 |
| COc1ccc(CCNS(=O)(=O)c2cccc([N+](=O)[O-])c2)cc1 | 42.8 (≈ 127 µM) |
| COc1ccc(Nc2ccc(C(N)=O)cc2[N+](=O)[O-])cc1 | 14.3 (≈ 49.8 µM) |
| CC(C)CCNS(=O)(=O)c1cc2c3c(c1)CCN3C(=O)CC2 | 46 (≈ 143 µM) |
| N#C/C(=C\N1CCOCC1)C(N)=O | > 27.2 |
| Cc1ccc(CNC(=O)C2CSC3(C)CCC(=O)N23)cc1 (stereo unspecified) | > 45.7 |

| Structure (SMILES) | solubility kinetic [µg/mL] |
| --- | --- |
| N/C(=N\OC(=O)Cc1ccccc1)c1cccc(Br)c1 | 1.1 (≈ 3.3 µM) |
| CC(=O)Nc1ccc(NC(=O)/C=C/c2ccc(Cl)cc2)cc1 | < 0.3 |
| NC(=O)C1CCCN1 (stereo unspecified) | > 17.1 |
| COc1nc(-c2ccc(Cl)cc2Cl)nc2ccccc12 | < 0.3 |
| C/C(=N\O)c1ccc2c(c1)OCCO2 | > 29 |
| Nc1nc(-c2c(Cl)cccc2Cl)no1 | 32.7 (≈ 142 µM) |
| FC(F)(F)c1cccc(-c2nc(COc3ccc(Cl)cc3Cl)no2)c1 | < 0.4 |
| Cc1ccc(NC2c3ccccc3C(=O)N2c2cccnc2)cc1 (stereo unspecified) | 40.5 (≈ 128 µM) |
| Cc1nc2c(C)c(C)c(C)c(C)c2nc1C | < 0.2 |
| N/C(=N\OC(=O)Nc1ccccc1)c1ncc([N+](=O)[O-])s1 | 3.8 (≈ 12.4 µM) |
| O=C(COC(=O)c1ccc([N+](=O)[O-])o1)NCc1ccc2c(c1)OCO2 | > 52.2 |
| CN(C)Cc1cccc([N+](=O)[O-])c1O | > 29.4 |
| Cl.O=C(CN1CCCC1)Nc1ccc2c(c1)CCC2 | 41.3 |
| CCC1(CC)Cc2ccccc2-c2nc(CN(C)C)[nH]c(=O)c21 | 10.8 (≈ 34.7 µM) |
| CSc1ncc(Cl)c(C(=O)Nc2cccnc2)n1 | > 42.1 |
| Cc1ccc(C(C)NC(=O)c2cccnc2)cc1 (stereo unspecified) | 33.5 (≈ 139 µM) |
| Cc1ccc(NC(=S)N(CCN(C)C)C(C)c2cccnc2)cc1 (stereo unspecified) | > 51.4 |
| CCCCSCCCNC(=S)Nc1ccccc1C | 35.3 (≈ 119 µM) |
| O=C(COC(=O)c1cccnc1Cl)NCc1ccc(F)cc1 | > 48.4 |
| CCn1c(=O)c2ccccc2n(Cc2cccc(C)c2)c1=O | 19.9 (≈ 67.6 µM) |
| Cc1nccn1Cc1ccc(Cl)nc1 | > 31.1 |
| COC(=O)[C@H](Cc1ccccc1)NC(=O)NCCc1ccccc1F | > 51.7 |
| O=C(O)C1CCCN(C(=O)c2cccc3ccccc23)C1 (stereo unspecified) | > 42.5 |

| Structure (SMILES) | solubility kinetic [µg/mL] |
| --- | --- |
| O=C(O)c1ccc(S(=O)(=O)N(Cc2ccccc2)Cc2ccccc2)cc1 | 19.5 (≈ 51.1 µM) |
| CCS(=O)c1scc(-c2ccc(Cl)cc2)c1C#N (stereo unspecified) | 20.9 (≈ 70.7 µM) |
| CCNC(=O)CC1C(=O)N(CC)C(=S)N1NC(=O)c1cccnc1 (stereo unspecified) | > 52.4 |
| CC(=O)N1CCN(C(=O)c2ccc(Oc3ccccc3)cc2)CC1 | 46.6 (≈ 144 µM) |
| O=C(OCc1nc2ccsc2c(=O)[nH]1)c1ccccc1 | > 42.9 |
| CN(Cc1ccccc1)C(=S)Nc1cccnc1 | > 38.6 |
| C/C(=N/OC(=O)C1CC1c1ccccc1)c1ccccc1 (stereo unspecified) | 3.6 (≈ 12.9 µM) |
| N/C(=N\OC(=O)c1cccc2ccccc12)c1ccccn1 | 38.2 (≈ 131 µM) |
| CCC(C)NC(=O)Cn1nc(C(F)(F)F)c2c1CCC2 (stereo unspecified) | > 43.4 |
| Cc1ccc(C)c(C(C)NC(=O)C2CCCO2)c1 (stereo unspecified) | 36.7 (≈ 148 µM) |
| COc1ccc(N(C=O)C(=S)SC)cc1 | 2.7 (≈ 11.2 µM) |
| CC(NC(=O)c1ccc(Cl)cc1)C1CC2CCC1C2 (stereo unspecified) | 1.1 (≈ 3.96 µM) |
| CCOC(=O)C1(Cc2cccc(F)c2)CCN(C(=O)COC)CC1 | 47.2 (≈ 140 µM) |
| Cc1ccc(C(=O)NN2CCOCC2)cc1[N+](=O)[O-] | > 39.8 |
| CCN(CC(=O)Nc1c(F)cccc1F)C(=O)C1CC1 | 40.7 (≈ 144 µM) |
| CC1CC(C)CN(C(=O)c2ccc3ncsc3c2)C1 (stereo unspecified) | > 41.2 |
| CCOc1ccc(S(=O)(=O)N2CCOCC2)cc1[N+](=O)[O-] | > 47.4 |
| CC(C(=O)O)n1c2ccccc2c2cnn(C)c(=O)c21 (stereo unspecified) | > 40.7 |
| N#CCCN(C(=O)COC(=O)CSc1ccc(Cl)cc1)c1ccccc1 | 56.9 (≈ 146 µM) |
| CCC(Oc1ccccc1F)C(=O)Nc1ccc2c(c1)n(C)c(=O)n2C (stereo unspecified) | 49 (≈ 137 µM) |
| O=C(Nc1cccnc1Cl)c1cccc(S(=O)(=O)N2CCOCC2)c1 | > 57.3 |
| Cc1ccc2cccc(OC(=O)/C=C\c3ccccc3)c2n1 | 16.8 (≈ 58.1 µM) |

Now from value to compound:

| solubility kinetic [µg/mL] | Structure (SMILES) |
| --- | --- |
| 1.2 (≈ 3.51 µM) | O=C(Nc1ccc2c(c1)OCCO2)C1CC(c2ccc(F)cc2)=NO1 (stereo unspecified) |
| 1.1 (≈ 3.37 µM) | CCOc1ccc(C(=O)Nc2cccc3ncccc23)cc1Cl |
| > 43.1 | CC(C)C(=O)O/N=C1\CCS(=O)(=O)c2sccc21 |
| > 42.7 | Cc1cc(N2CCN(C)CC2)nc(-c2ccccc2O)n1 |
| 1.5 (≈ 4.58 µM) | COc1cc(C(=S)N2CCCC2)ccc1OCc1ccccc1 |
| 9.6 (≈ 31.1 µM) | Cc1cccc(C)c1NC(=O)CSC(=S)N1CCCC1 |
| 0.8 (≈ 2.64 µM) | COc1ccc(-c2csc(-c3cccs3)n2)c(OC)c1 |
| > 53.6 | CN1CCN(C(=O)C23CCC(C)(C(=O)C2Br)C3(C)C)CC1 (stereo unspecified) |
| 21.9 (≈ 84.8 µM) | O=S(=O)(c1ccc(=S)[nH]c1)N1CCCCC1 |
| > 42.9 | Cc1cc(=O)oc(C)c1C(=O)Nc1ccc(N(C)C)cc1 |
| 42.4 (≈ 146 µM) | O=C(NCC1CCCO1)c1cc(-c2ccccc2F)no1 (stereo unspecified) |
| 4.5 (≈ 14.2 µM) | O=C(COC(=O)c1ccc(F)cc1)Nc1ccc2c(c1)OCO2 |
| 39 (≈ 120 µM) | CCNC(=O)c1ccc(=O)n(Cc2ccc(Cl)cc2Cl)c1 |
| > 50.5 | COC(=O)c1sccc1NC(=O)CSCCc1ccccn1 |
| 37.6 | CC1NC(C)(C)Cc2c1ccc1ccccc21.Cl (stereo unspecified) |
| 13.2 (≈ 41.5 µM) | CSCCNC(=O)c1ccc2nc(C3CCCCC3)oc2c1 |
| 42.8 (≈ 136 µM) | CN(Cc1nc(-c2cccs2)no1)CC(O)c1ccccc1 (stereo unspecified) |
| > 42.1 | CC1CCN(C(=S)NC(=O)c2ccc(F)cc2)CC1 |
| > 46.1 | CCOC(=O)CCCc1ccc(/C(C)=N/NC(N)=S)cc1 |
| > 38.5 | O=C(Nc1ccc(F)c(Cl)c1)c1cncs1 |
| > 54.4 | Cc1cc(=O)[nH]c(SCC(=O)N2CCN(C(=O)c3ccco3)CC2)n1 |
| 11.6 (≈ 24 µM) | Cc1ccc(NC(=O)CN(C)C(=O)c2ccc(NS(=O)(=O)c3cccc([N+](=O)[O-])c3)cc2)cc1 |
| 5.3 (≈ 15.9 µM) | Cc1ncc([N+](=O)[O-])n1CCOC(=O)C12CC3CC(CC(C3)C1)C2 |
| 10.8 (≈ 94.6 µM) | Cc1csc(N)n1 |
| 2.6 (≈ 7.59 µM) | Cc1ccc(C)c(C(=O)CN2C(=O)NC3(CCCCCCC3)C2=O)c1 |
| 2.4 (≈ 7.63 µM) | O=C(NC1CCSc2ccccc21)c1cccc([N+](=O)[O-])c1 (stereo unspecified) |
| > 42.2 | CCC(=O)Nc1cccc(-c2nc3ncccc3o2)c1C |

| solubility kinetic [µg/mL] | Structure (SMILES) |
| --- | --- |
| > 40.8 | CC(=O)CN1C(=O)NC2(CCCc3ccccc32)C1=O (stereo unspecified) |
| > 36 | CCC(CO)NCC#Cc1ccccc1.Cl (stereo unspecified) |
| > 40.3 | CC(C)(C)N(Cc1ccccc1)C(=O)c1ccncc1 |
| > 48.2 | Cc1ccc([N+](=O)[O-])c(OCCCN2C(=O)NC(C)(C)C2=O)c1 |
| > 46.6 | O=S(=O)(NC(=S)Nc1ccccc1)c1ccc(F)cc1 |
| > 49.7 | Cc1c(Cl)cnc(NC(=O)COC(=O)C2CCCC2)c1Cl |
| 2.7 (≈ 8.05 µM) | COc1ccccc1N1CCN(C(=O)c2cc3ccccc3[nH]2)CC1 |
| > 43.9 | COc1cc2ccccc2cc1C(=O)NCc1ccncc1 |
| > 54.4 | Cc1ccc(OC(C)C(=O)OCC(=O)Nc2sccc2C(N)=O)cc1 (stereo unspecified) |
| > 26.3 | CCc1nn(C)c(N)c1C.Cl |
| 59.4 | O=C(C[n+]1ccc(C(=O)c2ccccc2)cc1)Nc1ccccc1OC(F)F.[Cl-] |
| > 38.6 | CCCc1cc(=O)[nH]c(NCCc2ccccc2)n1 |
| 40 (≈ 130 µM) | O=C(C1CC(=O)N(c2ccc(Cl)cc2)C1)N1CCOCC1 (stereo unspecified) |
| 43.9 (≈ 135 µM) | CC(C)Oc1cccc(NC(=O)c2cnccc2C(F)(F)F)c1 |
| < 0.4 | O=C(CN1CCCCCC1)Nc1cc(C(F)(F)F)ccc1Cl |
| 3.1 (≈ 11.4 µM) | O=C1CCCN=C(Nc2ccc(F)c(Cl)c2)S1 |
| 35.8 (≈ 119 µM) | COc1ccc(CNC(=O)COc2ccc(OC)cc2)cc1 |
| 11.2 (≈ 27.6 µM) | CSc1ncccc1C(=O)Nc1cccc(S(=O)(=O)N2CCCCCC2)c1 |
| 12 (≈ 35 µM) | COc1ccc2nc3oc(C(=O)NCCCOC(C)C)cc3cc2c1 |
| 2.2 (≈ 5.49 µM) | COc1ccc(C(=O)N[C@H](C(=O)NCCCSc2ccccc2)C(C)C)cc1 |
| 46.2 (≈ 122 µM) | O=C(/C=C/c1ccco1)N(Cc1ccc(Cl)cc1)C1CCS(=O)(=O)C1 (stereo unspecified) |
| 44.5 (≈ 142 µM) | COCCSc1ccccc1C(=O)N1CCc2ccccc21 |
| 45.2 (≈ 142 µM) | CC(=O)N(C)c1ccc(NC(=O)Nc2ccc(Cl)cc2)cc1 |
| > 28.2 | NC1=C(c2ccccc2)C(=O)NC1=O |
| > 43.9 | Cc1csc2c(NCCCN3CCOCC3)ncnc12 |
| > 53.4 | CC(=O)Nc1ccc(NC(=O)c2cc(-n3cnnc3)ccc2Cl)cc1 |
